Broadly, the LD50 is the dose expected to kill half of the subjects tested.

Data set [1] has as its system adhesion of human PBMCs to rat HEC transfected with full-length human SSAO/VAP-1. Nature of the data set: In vitro adhesion of PBMCs to SSAO/VAP-1-transfected high endothelial cells. Type of data set: cell-based. Conditions: inhibitors at IC100 concentrations, antibody 10 μg/ml; 3 hr at 37° C. How it is done: The studies in this Example were carried out in order to determine whether SSAO/VAP-1 transfected into endothelial cells retained the adhesion function and whether it played any role in the adhesion of freshly isolated human PBMCs to these cells. Moreover, the studies were also designed to determine whether blocking of SSAO/VAP-1 would have an impact on the level of adhesion between these two cell types. Adhesion assays were performed using cells labeled with the fluorescent dye Calcein-AM (Molecular Probes, OR, USA) as per the manufacturer's instructions. Briefly, rat lymph node high endothelial cells (HEC; isolation and culture was described in Ager, A. (1987) J. Cell Sci. 87: 133) were plated overnight in 96-well plates (2,000 cells/well). PBMCs (peripheral blood mononuclear cells) (1×10^7) were labeled with 1 ml of 10 μM Calcein-AM for 1 hr at 37° C., washed three times with RPMI, and added to the 96 well plates containing monolayers of HEC cells mock-transfected or transfected with full-length human SSAO/VAP-1 (60,000 PBMCs were plated per well containing 2,000 HEC cells). Adhesion was carried out for 3 hr at 37° C. Non-adherent cells were removed by washing three times with RPMI and fluorescence was measured in a fluorescence plate reader at an excitation wavelength of 485 nm and emission wavelength of 530 nm. Several controls were included, such as HEC cells and PBMCs (labeled and unlabeled) alone.
(§1) These studies were repeated using the adhesion assay as described above to evaluate the inhibitors of the invention. Adhesion blockers used included an anti-human VAP-1 monoclonal antibody (Serotec, Oxford, UK), neuramidase (a sialidase, because SSAO/VAP-1 is a sialoglycoprotein; Sigma), and several function-blocking antibodies to rat adhesion molecules (CD31-PECAM, CD54-ICAM-1, […]-P Selectin). […] Antibodies (10 μg/ml) and neuramidase (5 mU) were incubated with the HECs for 30 min at 37° C.; excess antibody was washed away prior to the addition of the labeled PBMCs. Small-molecule inhibitors were pre-incubated the same way at IC100 concentrations, but the amounts present in the supernatant were not washed away to preserve the IC100 concentration during the adhesion step.

Data set [2] relates to EAE in C57BL/6 mice. Nature of the data set: Experimental autoimmune encephalomyelitis (EAE), MOG 35-55. Type of data set: in vivo. As for the experimental part: SSAO/VAP-1 is expressed on the endothelium of inflamed tissues/organs including brain and spinal cord. Its ability to support lymphocyte transendothelial migration may be an important systemic function of SSAO/VAP-1 in inflammatory diseases such as multiple sclerosis and Alzheimer's disease. An analysis of the use of SSAO inhibitors to treat inflammatory disease of the central nervous system (CNS) was performed through the use of an experimental autoimmune encephalomyelitis model (EAE) in C57BL/6 mice. EAE in rodents is a well-characterized and reproducible animal model of multiple sclerosis in human (Benson J. M. et al. (2000) J. Clin. Invest. 106:1031). Multiple sclerosis is a chronic immune-mediated disease of the CNS characterized by pachy perivenular inflammatory infiltrates in areas of demyelination and axonal loss. As an animal model, EAE can be induced in mice by immunization with encephalitogenic myelin antigens in the presence of adjuvant. The pathogenesis of EAE comprises presentation of myelin antigens to T cells, migration of activated T cells to the CNS, and development of inflammation and/or demyelination upon recognition of the same antigens.
Thirty female C57BL/6 mice were immunized subcutaneously (s.c). with myelin oligodendrocyte glycoprotein 35-55 (MOG peptide 35-55) in Complete Freund Adjuvant (CFA) on day 0, followed by i.p. injections of pertussis toxin (one pertussis toxin injection on day 0, a second pertussis toxin injection on day 2). Groups of 10 mice received either the allylamine compound mofegiline (AA, 10 mg/kg/dose, twice daily for 18 consecutive days), methotrexate (2.5 mg/kg/day, every other day (Mon., Weds., Fri.) till day 18) or vehicle control (twice/day for 18 consecutive days) all-starting from one day after the immunization and all administered i.p. Then animals were monitored for body weight, signs of paralysis and death according to a 0-5 scale of scoring system as follows: 1=limp tail or waddling gait with tail tonicity; 2=waddling gait with limp tail (ataxia); 2.5=ataxia with partial limb paralysis; 3=full paralysis of one limb; 3.5=full paralysis of one limb with partial paralysis of second limb; 4=full paralysis of two limbs; 4.5=moribund; 5=death. Results are shown in FIG. 2A, FIG. 2B, and FIG. 2C. […] (p=0.04 by repeated measure analysis to assess the treatment effect. Proper polynomial transformation, with the spacing corresponding to the collection days, was applied to test the time effect). Statistically significant differences in diseases severity between the AA and vehicle-treated groups, continued even after stopping compound administration and were observed until the end of the study (d25) .

In data set [3] the test system is C57B1/6 female mice. Nature of the data set: Acute toxicity studies in mice. Type of data set: in vivo. How it is done:
(§2) Intraperitoneal (i.p.) and intravenous (i.v.) LD50 values for the compounds of Examples 8 and 10, as well as mofegiline, the allylamine compound described in Example 18, were determined in mice. Six-week old C57B1/6 female mice were divided in groups of five and administered a single i.p or i.v. injection of compound dissolved in PBS (10-100 mg/kg in 100 ul i.v.; 30-500 mg/kg in 200 ul i.p.). Control groups were administered the same volume of PBS i.p. or i.v. Appearance and overt behavior were noted daily, and body weight was measured before compound administration (Day 1) and on Days, 3, 5 and 7. After seven days, animals were euthanized and their liver, spleen and kidneys weighted.
(§3) Acute toxicity effects for mofegiline included tremors (40 mg/kg i.v.; 100 mg/kg i.p.) and clonic convulsions and labored breathing (100 mg/kg i.v.; 200 mg/kg i.p.). […] All deaths occurred within 24 hours after drug administration. […] Thus, there is no indication of the cause of death for any of the compounds tested.

A short description of data set [4]: Acute toxicity studies in mice. Conditions: female, C57B1/6, mouse, in vivo, Day 7 values. Type of data set: in vivo. As for the experimental part: as §2, §3
The test system of data set [5] is SSAO. In words: IC100 concentrations of SSAO inhibitors used in the adhesion assay. It is filed as biochemical. Conditions: FIG. 7 legend.
Description: FIG. 7 depicts the effect of blockage of SSAO/VAP-1 on binding between peripheral blood mononuclear cells (PBMCs) and high endothelial cells (HEC). FIG. 7A is a control experiment showing the effect of various compounds used for treatment on the adhesion of PBMCs to mock-transfected high endothelial cells; a non-treated control is included for comparison (MNT). FIG. 7B is a control experiment showing the effect of various compounds used for treatment on the adhesion of PBMCs to high endothelial cells transfected with VAP-1; a non-treated control is included for comparison (VNT).
as §1

Where two headings read alike, the source gives them in different places.

For the molecule `C#CCN(C)CCCOc1ccc(Cl)cc1Cl` [Clorgyline, clorgyline], the “number of PBMCs adherent to SSAO/VAP-1 transfected HECs” value in data set [1] was “no effect”.

With `NC/C(=C/F)CCc1ccc(F)cc1` [Mofegiline, mofegiline, reference compound], the “disease severity (clinical score)” value in data set [2] (10 mg/kg/dose i.p. twice daily for 18 days, p=0.04 vs vehicle) was “statistically significant reduction”. In addition, the “disease incidence (mice affected)” value in data set [2] (10 mg/kg/dose i.p. twice daily, dosing period up to day 18, vehicle 80%) is listed as 50%. Further, the body weight loss result in data set [2] (10 mg/kg/dose i.p. twice daily, dosing period, p=0.04) is on record as “prevented”. The dose causing tremors in data set [3] (i.p.) was 100 mg/kg; in data set [3] (i.v.), 40 mg/kg. Also, the “dose causing convulsions and labored breathing” value in data set [3] (i.p. (see Table 2)) was 200 mg/kg. For the same molecule, in data set [3] (i.v.), the “dose causing clonic convulsions and labored breathing” value is 100 mg/kg. In addition, the LD50 at 7 days was determined as 200 mg/kg in data set [4] (ip, single i.p. injection, read-out: LD50 intraperitoneal) and 70 mg/kg in data set [4] (iv, single i.v. injection, read-out: LD50 intravenous).

For the molecule `C#CCN(C)Cc1ccccc1` [Pargyline, pargyline], in data set [1], the “number of PBMCs adherent to SSAO/VAP-1 transfected HECs” value is recorded as “no effect”.

On to `NNC(N)=O` [Semicarbazide, semicarbazide], for which, in data set [5], the “IC100 (SSAO)” value worked out at 500 µM.

Source of the values: US20050096360A1, “Inhibitors of semicarbazide-sensitive amine oxidase (SSAO) and VAP-1 mediated adhesion useful for treatment of diseases” (priority 2003, published 2005).
